These results are taken from ChEMBL document CHEMBL3734721 (J Med Chem, 2015).

Converted amounts (≈) assume the structure as drawn. Some results are limits rather than exact numbers.

The target of data set [1] is 5-hydroxytryptamine receptor 2A (Homo sapiens, UniProt P28223). The experiment in a line: Agonist activity at human 5-HT2A receptor expressed in CHO-K1 cells assessed as calcium level by FDSS assay. It is filed as functional, cell-based.
For data set [2], the target named is T1, Type-1 angiotensin II receptor (Homo sapiens, UniProt P30556).
T1 sequence (P30556 whole entry): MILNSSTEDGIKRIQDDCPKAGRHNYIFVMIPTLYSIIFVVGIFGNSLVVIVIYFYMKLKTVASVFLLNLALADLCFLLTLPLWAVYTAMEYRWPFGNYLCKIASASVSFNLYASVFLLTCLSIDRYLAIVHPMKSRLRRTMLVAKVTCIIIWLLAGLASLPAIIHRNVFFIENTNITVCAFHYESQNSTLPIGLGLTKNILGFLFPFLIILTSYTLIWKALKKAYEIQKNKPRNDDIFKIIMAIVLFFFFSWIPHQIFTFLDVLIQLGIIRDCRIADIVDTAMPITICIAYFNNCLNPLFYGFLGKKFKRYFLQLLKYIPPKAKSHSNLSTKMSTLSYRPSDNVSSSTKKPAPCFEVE
Briefly: Agonist activity at human wild-type AGTR1 receptor expressed in CHO-K1 cells assessed as calcium level by FDSS assay. The format is functional, cell-based.

In data set [3] the target is T2, Adenosine receptor A2a (Homo sapiens, UniProt P29274). The experiment in a line: Antagonist activity at human wild-type A2A receptor expressed in CHO-K1 cells assessed as NECA-induced cAMP by HTRF assay. It is filed as functional, cell-based. For orientation: In TR-FRET formats the signal depends on donor and acceptor labels being close together.
In data set [4] the target is T3, Muscarinic acetylcholine receptor M2 (Homo sapiens, UniProt P08172).
T3 sequence (P08172 whole entry): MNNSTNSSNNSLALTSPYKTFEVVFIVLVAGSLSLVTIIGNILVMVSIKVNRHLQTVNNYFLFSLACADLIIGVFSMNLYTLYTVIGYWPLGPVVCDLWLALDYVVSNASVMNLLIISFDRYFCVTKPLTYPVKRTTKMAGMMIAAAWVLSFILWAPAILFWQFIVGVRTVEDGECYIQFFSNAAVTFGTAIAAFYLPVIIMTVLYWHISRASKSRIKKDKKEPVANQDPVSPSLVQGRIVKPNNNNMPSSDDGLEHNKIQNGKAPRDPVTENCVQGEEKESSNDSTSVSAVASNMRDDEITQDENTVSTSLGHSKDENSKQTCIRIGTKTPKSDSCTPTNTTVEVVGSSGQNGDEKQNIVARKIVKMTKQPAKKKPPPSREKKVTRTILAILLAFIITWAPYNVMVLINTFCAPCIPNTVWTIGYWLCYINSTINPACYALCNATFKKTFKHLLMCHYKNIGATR
Briefly: Agonist activity at human wild-type M2 receptor expressed in CHO-K1 cells assessed as cAMP level by HTRF assay. It is filed as functional, cell-based. (In general: Cyclic AMP is a second messenger, typically raised through Gs and lowered through Gi signalling.)

Data set [5] has as its target 5-hydroxytryptamine receptor 6 (Homo sapiens, UniProt P50406). The experiment in a line: Antagonist activity at human 5-HT6 receptor expressed in 1321N1 cells assessed as seretonin-induced cAMP by HTRF assay. It is filed as functional, cell-based.
Data set [6] deals with T4, Alpha-2C adrenergic receptor (Homo sapiens, UniProt P18825).
T4 sequence (P18825 whole entry): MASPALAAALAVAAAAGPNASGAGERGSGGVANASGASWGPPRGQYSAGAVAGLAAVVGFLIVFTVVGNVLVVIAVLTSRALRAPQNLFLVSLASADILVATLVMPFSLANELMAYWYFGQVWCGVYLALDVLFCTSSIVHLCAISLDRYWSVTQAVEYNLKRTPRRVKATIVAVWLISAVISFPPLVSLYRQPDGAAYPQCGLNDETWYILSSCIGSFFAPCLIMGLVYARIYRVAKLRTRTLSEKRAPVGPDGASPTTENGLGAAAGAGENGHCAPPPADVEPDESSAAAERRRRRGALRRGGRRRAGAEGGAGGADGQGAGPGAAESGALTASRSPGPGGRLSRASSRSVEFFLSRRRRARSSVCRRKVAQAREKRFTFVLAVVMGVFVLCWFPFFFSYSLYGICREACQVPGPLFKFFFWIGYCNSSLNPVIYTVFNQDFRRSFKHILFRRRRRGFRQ
Briefly: Antagonist activity at human wild-type alpha 2C receptor expressed in CHO-K1 cells assessed as epinephrine-induced cAMP by HTRF assay. It is filed as functional, cell-based.

The target of data set [7] is T5, Alpha-1A adrenergic receptor (Homo sapiens, UniProt P35348).
T5 sequence (P35348 whole entry): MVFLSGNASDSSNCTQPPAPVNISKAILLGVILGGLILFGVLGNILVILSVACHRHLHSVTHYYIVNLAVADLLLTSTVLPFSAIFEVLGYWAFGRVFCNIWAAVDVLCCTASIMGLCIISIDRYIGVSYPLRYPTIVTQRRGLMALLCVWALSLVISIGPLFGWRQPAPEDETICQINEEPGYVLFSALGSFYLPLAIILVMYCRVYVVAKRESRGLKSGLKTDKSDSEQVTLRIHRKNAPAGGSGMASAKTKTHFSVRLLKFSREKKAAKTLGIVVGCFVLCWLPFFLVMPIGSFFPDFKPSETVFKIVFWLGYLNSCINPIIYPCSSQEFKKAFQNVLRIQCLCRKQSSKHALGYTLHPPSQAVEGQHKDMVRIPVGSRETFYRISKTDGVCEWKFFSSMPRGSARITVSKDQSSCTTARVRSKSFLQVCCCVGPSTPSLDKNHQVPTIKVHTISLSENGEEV
The experiment in a line: Antagonist activity at human wild-type alpha 1A receptor expressed in CHO cells assessed as EP-induced calcium by HTRF assay. It is filed as functional, cell-based.

Data set [8] in a line: Intrinsic clearance in rat liver microsomes at 1 uM by HPLC/MS/MS analysis. The format is ADME. The note with it: read-out: CLH. On the technique in general: Liver microsomes are a subcellular fraction often used to study metabolism.
A short description of data set [9]: Kinetic solubility of compound in phosphate buffer at pH 7.4 for 4 hrs by UPLC/UV analysis. It is filed as physicochemical. The note with it: read-out: Kinetic_solubility.
Data set [10] in a line: Chemical stability of compound in DMSO assessed as compound remaining at 10 mg/ml after 2 days at room temperature. It is filed as physicochemical. The conditions noted are these: read-out: Stability.
The target of data set [11] is T4, Alpha-2C adrenergic receptor. Briefly: Agonist activity at human wild-type alpha 2C receptor expressed in CHO-K1 cells assessed as cAMP level by HTRF assay. It is filed as functional, cell-based.
Data set [12] has as its target T2, Adenosine receptor A2a. The experiment in a line: Agonist activity at human wild-type A2A receptor expressed in CHO-K1 cells assessed as cAMP level by HTRF assay. It is filed as functional, cell-based.
The target of data set [13] is T6, Muscarinic acetylcholine receptor M1 (Homo sapiens, UniProt P11229).
T6 sequence (P11229 whole entry): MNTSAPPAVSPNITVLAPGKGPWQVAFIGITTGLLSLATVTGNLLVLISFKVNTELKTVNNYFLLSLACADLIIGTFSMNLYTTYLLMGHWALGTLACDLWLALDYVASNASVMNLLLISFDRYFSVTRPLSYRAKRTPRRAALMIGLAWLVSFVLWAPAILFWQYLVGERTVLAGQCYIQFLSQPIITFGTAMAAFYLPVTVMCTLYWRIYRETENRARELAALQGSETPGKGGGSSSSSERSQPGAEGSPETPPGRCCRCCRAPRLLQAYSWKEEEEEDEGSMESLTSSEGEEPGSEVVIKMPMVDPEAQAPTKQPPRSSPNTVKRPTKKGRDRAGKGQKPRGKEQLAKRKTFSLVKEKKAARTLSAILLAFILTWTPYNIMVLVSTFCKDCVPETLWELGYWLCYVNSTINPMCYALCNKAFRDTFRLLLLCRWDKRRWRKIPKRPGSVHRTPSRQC
The experiment in a line: Agonist activity at human wild-type M1 receptor expressed in CHO-K1 cells assessed as calcium level by FDSS assay. It is filed as functional, cell-based.

T2 sequence (P29274 whole entry): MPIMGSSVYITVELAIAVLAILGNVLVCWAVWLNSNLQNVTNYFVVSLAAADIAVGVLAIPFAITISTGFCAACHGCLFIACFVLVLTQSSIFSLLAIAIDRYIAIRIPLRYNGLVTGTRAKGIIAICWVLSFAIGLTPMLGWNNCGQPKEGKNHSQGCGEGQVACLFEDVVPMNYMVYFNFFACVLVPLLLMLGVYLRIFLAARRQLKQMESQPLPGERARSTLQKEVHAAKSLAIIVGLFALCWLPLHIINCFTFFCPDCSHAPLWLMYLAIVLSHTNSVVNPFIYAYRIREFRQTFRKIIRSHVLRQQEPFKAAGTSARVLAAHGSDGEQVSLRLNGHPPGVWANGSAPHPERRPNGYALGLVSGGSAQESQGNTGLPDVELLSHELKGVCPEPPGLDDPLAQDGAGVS
Sequence of 5-hydroxytryptamine receptor 6 (P50406 whole entry): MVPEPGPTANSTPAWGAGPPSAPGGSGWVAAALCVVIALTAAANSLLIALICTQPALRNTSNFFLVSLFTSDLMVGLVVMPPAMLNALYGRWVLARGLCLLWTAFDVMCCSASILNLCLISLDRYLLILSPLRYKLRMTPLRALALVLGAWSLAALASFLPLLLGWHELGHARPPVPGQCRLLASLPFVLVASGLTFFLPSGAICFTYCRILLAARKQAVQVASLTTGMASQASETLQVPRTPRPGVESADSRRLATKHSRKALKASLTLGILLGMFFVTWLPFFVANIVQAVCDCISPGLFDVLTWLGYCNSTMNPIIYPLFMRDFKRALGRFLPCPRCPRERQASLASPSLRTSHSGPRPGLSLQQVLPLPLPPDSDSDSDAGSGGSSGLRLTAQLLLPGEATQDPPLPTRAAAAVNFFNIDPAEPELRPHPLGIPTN
Sequence of 5-hydroxytryptamine receptor 2A (P28223 whole entry): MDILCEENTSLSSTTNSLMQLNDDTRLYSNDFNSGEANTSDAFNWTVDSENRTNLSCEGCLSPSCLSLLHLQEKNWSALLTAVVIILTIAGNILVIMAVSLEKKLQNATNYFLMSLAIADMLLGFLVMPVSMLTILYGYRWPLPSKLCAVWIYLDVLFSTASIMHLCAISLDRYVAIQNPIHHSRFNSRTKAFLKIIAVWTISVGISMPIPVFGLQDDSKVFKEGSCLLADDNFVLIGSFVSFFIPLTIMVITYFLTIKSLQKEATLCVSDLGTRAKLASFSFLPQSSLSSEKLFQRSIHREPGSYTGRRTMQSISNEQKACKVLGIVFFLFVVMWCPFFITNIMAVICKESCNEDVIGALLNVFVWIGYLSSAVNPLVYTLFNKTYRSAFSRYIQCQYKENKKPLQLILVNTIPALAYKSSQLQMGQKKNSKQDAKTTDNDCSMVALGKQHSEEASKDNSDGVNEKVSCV

Consider `CB1C=Cc2c(cccc2OCC(O)CN(C)C)N1` (stereo unspecified), for which the EC50 in [1], in [2], in [4], in [11], in data set [12] and in [13] was above 5.01 µM each time. Also, the IC50 in [3], in data set [5], in data set [6] and in [7] was above 5.01 µM throughout. In addition, the microsomal CLint at 1 µM in data set [8] was above 346 µL/min/mg. For the same compound, the solubility kinetic at 4 h in data set [9] worked out at 647 µM (≈ 168 µg/mL). Moreover, the remaining at 48 h, 10 mg/ml in data set [10] came out at 96%.
In the case of `CB1C=Cc2cccc(OCC(O)CNC(C)C)c2N1` (stereo unspecified), the EC50 in data set [1], in data set [2], in data set [4], in data set [11], in [12] and in [13] was above 5.01 µM each time. The IC50 in data set [3], in data set [5], in data set [6] and in data set [7] was above 5.01 µM each time. In addition, in data set [8], the microsomal CLint at 1 µM was 289 µL/min/mg. The solubility kinetic at 4 h in data set [9] is 699 µM (≈ 192 µg/mL). Further, in [10], the remaining at 48 h, 10 mg/ml amounted to 96%.
